{
  "source": "paper PMC9147192",
  "about": "“Small Molecule Arranged Thermal Proximity Coaggregation (smarTPCA)—A Novel Approach to Characterize Protein–Protein Interactions in Living Cells by Similar Isothermal Dose–Responses” (International Journal of Molecular Sciences, 2022)",
  "assay_in_all_cases": "TPP-CCR in living HL-60 cells",
  "assay_type_in_all_cases": "cell-based",
  "key": {"UGGT1": {"target": "T1, UGGT1 (Homo sapiens, UniProt Q9NYU2)", "T1 construct": "endogenous in cells; host or cells: HL-60 (ATCC CCL-240)", "T1 sequence (Q9NYU2 43-1555)": "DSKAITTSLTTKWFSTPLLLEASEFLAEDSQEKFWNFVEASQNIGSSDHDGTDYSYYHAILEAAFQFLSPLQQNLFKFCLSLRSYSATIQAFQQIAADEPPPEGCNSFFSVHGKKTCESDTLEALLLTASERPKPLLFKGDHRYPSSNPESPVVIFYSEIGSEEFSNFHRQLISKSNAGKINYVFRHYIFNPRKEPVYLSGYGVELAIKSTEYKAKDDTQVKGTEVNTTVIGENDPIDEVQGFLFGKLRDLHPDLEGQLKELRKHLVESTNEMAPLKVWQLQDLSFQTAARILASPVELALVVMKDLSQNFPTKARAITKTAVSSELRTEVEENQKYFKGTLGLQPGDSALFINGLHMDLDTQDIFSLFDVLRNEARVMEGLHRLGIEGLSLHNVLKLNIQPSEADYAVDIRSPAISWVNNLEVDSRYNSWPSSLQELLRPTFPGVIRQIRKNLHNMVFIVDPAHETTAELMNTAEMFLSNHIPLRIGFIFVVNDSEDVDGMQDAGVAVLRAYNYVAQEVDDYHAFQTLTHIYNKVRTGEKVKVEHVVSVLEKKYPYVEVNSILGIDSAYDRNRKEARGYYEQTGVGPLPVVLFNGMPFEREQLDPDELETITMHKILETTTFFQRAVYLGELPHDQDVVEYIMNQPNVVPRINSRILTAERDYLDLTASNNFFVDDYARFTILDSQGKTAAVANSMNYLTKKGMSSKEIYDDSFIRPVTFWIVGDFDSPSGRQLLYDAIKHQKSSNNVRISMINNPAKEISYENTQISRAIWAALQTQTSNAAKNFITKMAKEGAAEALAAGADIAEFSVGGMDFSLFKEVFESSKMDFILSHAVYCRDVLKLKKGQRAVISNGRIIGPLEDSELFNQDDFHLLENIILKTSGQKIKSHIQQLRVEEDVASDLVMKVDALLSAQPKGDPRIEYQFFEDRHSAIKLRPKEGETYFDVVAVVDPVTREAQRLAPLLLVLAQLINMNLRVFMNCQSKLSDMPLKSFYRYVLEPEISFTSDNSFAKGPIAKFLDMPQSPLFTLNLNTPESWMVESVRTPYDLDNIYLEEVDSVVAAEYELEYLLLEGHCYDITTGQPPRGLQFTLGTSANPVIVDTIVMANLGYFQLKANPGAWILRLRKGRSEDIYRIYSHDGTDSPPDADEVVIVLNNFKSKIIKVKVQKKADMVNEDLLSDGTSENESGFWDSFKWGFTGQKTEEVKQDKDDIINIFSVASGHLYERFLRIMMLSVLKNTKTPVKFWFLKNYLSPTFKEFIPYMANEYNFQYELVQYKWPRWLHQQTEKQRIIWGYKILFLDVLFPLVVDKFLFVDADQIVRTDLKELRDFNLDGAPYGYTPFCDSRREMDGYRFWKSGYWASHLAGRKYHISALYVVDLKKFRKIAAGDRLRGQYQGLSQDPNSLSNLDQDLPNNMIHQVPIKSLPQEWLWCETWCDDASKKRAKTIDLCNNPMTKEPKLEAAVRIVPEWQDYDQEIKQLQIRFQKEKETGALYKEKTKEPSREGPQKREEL", "description": "(§1) Therefore, we performed TPP with compound concentration range (TPP-CCR) experiments according to published procedures. In brief, after preparing tryptic peptides from the non-denatured protein fractions (used for immunoblotting in the previous sections) applying the SP3 method, the peptides were labeled using TMT10plex, coding for inhibitor concentration, and the samples belonging to a TMT set were combined, offline high-pH fractionated, and analyzed by MS.\n(§2) HL-60 cells were expanded as described above for CETSA and TPP-TR to 1.25 million cells per milliliter. […] A number of 2.5 million cells in 2 mL of medium were added to each tube and incubated (1 h, 37 °C). After centrifugation (300 rcf, 3 min, r.t.) and removing all of the supernating culture medium, the cells were washed once with 2 mL and once with 0.5 mL PBS (r.t.) by gently resuspending the cells, followed by centrifugation (300 rcf, 3 min, r.t.) and the complete removal of the supernatants.\n(§3) After transferring the cells from the 2 mL Eppendorf tubes into correspondingly labeled PCR tubes (tube strips) using 100 µL of ice-cold PBS supplemented with protease inhibitors for resuspending the cells, the samples were further processed as described above for CETSA and TPP-TR, however, by applying a single treatment temperature of 51 °C.\n(§4) For each sample set comprising ten compound concentration range samples, a same volume of the cell extracts containing the fraction of soluble, non-denatured proteins, corresponding to an average of 5 µg total protein, was used for further analysis. The calculated volume was respectively transferred into PCR tubes of a tube strip and supplemented with SDS sample buffer without DTT and bromophenol blue (final concentrations: 7.5% glycerol, 3% SDS, 37.5 mM Tris/HCl pH 7.0) and ddH2O to a final volume of 10 µL, respectively. Reduction and alkylation were performed by addition of 2.5 µL 100 mM dithiothreitol (DTT; incubation: 20 min, 56 °C, 1000 rpm in an Eppendorf ThermoMixer C, covering the tubes with aluminum foil to minimize condensation in the lids) and 3.33 µL 300 mM iodoacetamide (IAA; incubation: 15 min, r.t., in the dark without shaking), as well as 2.5 µL 100 mM DTT (incubation: 15 min, r.t., without shaking; quenching of excess of IAA). […] The beads were collected and washed (3× 200 µL 80% ethanol p.a. in HPLC-MS grade water, 1 × 200 µL acetonitrile (ACN; HPLC gradient grade)) using a device for handling of magnetic particles [patent US20100200405A1]. The ACN of the last washing step was completely removed by aspiration without letting the beads dry out.\n(§5) Tryptic digest was performed on-bead by resuspending (use of an ultrasound bath may be required) the beads in 20 µL 50 mM TEAB in HPLC-MS grade water containing 0.1 µg Trypsin/Lys-C mix and 16.5 h incubation at 37 °C and 1000 rpm (Eppendorf ThermoMixer C, covering the tubes with aluminum foil to minimize condensation in the lids). Tryptic fragmentation of proteins was optimized by addition of another 0.1 µg of Trypsin/Lys-C mix in 2 µL 50 mM TEAB and 4 h incubation at 37 °C and 1000 rpm. After centrifugation for about 1 min in a table top centrifuge and magnetic concentration and retention of the beads at the inner tube wall, the supernatants containing the peptides were transferred into new PCR tubes (of tube strips) and were stored at −80 °C. The beads were discarded.\n(§6) Half of the peptide samples (11 µL containing about 2.5 µg peptides) were transferred into new PCR tubes (of tube strips) and allowed to equilibrate to r.t. TMT labeling reagents were reconstituted as described for the TPP-TR samples, and 1 µL each was added to the reconstituted peptides according to the following scheme and homogenized immediately by aspiration and dispensing:\n(§7) Peptide separation was performed as described above for the analysis of TPP-TR samples. […]"}, "PDIA6": {"target": "T2, PDIA6 (Homo sapiens, UniProt Q15084)", "T2 construct": "endogenous in cells; host or cells: HL-60 (ATCC CCL-240)", "T2 sequence (Q15084 20-440)": "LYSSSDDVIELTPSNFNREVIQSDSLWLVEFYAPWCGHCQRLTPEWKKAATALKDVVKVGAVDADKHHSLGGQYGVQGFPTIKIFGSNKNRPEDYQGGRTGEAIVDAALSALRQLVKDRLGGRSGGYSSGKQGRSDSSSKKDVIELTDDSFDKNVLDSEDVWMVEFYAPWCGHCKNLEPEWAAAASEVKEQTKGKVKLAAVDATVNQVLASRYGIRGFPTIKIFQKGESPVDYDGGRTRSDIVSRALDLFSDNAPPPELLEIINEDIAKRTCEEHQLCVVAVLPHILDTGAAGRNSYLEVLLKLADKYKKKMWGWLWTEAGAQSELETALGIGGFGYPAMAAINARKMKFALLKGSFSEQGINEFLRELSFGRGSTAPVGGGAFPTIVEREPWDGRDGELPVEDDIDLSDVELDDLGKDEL", "description": "as §1, §2, §3, §4, §5, §6, §7"}, "POR": {"target": "T3, POR (Homo sapiens, UniProt P16435)", "T3 construct": "endogenous in cells; host or cells: HL-60 (ATCC CCL-240)", "T3 sequence (P16435 1-677)": "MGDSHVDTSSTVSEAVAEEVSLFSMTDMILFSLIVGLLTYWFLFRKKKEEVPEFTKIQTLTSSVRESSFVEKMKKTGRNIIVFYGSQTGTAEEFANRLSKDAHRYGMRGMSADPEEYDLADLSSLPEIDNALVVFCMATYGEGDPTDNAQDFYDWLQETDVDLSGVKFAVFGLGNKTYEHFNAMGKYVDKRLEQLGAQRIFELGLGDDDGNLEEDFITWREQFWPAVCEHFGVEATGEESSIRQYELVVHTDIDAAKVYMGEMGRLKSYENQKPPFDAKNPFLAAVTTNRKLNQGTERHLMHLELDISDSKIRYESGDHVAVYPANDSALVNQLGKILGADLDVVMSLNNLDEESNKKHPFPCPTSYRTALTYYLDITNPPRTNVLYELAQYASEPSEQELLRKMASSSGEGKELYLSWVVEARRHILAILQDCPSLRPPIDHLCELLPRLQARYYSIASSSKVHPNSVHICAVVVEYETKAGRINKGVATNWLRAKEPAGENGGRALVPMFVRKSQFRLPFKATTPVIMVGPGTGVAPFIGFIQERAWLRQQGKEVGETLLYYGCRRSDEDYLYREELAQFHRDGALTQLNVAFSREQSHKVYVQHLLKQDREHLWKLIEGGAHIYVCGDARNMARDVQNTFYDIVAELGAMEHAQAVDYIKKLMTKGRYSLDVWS", "description": "as §1, §2, §3, §4, §5, §6, §7"}, "ANP32E": {"target": "T4, ANP32E (Homo sapiens, UniProt Q9BTT0)", "T4 construct": "dose–responses (mean over replicates), derived from TPP-CCR experiments in living cells; endogenous in cells; host or cells: HL-60 cells (ATCC No. CCL-240)", "T4 sequence (Q9BTT0 whole entry)": "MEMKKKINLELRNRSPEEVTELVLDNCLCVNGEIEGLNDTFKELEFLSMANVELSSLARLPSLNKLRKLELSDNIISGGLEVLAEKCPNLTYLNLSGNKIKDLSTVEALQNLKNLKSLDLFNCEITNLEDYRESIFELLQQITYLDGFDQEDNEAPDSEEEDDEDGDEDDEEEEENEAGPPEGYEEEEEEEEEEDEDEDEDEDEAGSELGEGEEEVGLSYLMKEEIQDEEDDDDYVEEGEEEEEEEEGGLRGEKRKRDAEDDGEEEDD", "description": "as §1, §2, §3, §4, §5, §6, §7"}, "[1]": {"conditions": "living HL-60 cells, […] °C, TMT-MS"}},
  "data": [
    {"smiles": "Cc1cnc(Nc2ccc(F)cc2Cl)nc1-c1c[nH]c(C(=O)N[C@H](CO)c2cccc(Cl)c2)c1", "note": "[ERK 11e]", "values": [
      {"measurement": "Hill slope", "setting": "UGGT1; TPP-CCR, living cells, UGGT1", "result": 1.97},
      {"measurement": "Hill slope (UGGT1)", "setting": "UGGT1; [1]", "result": 1.97},
      {"measurement": "EC50", "setting": "UGGT1; living HL-60 cells, […] °C, TMT-MS, read-out: pEC50 (UGGT1) (converted)", "result": 5.37, "unit": "µM"},
      {"measurement": "Hill slope", "setting": "PDIA6; TPP-CCR, living cells, PDIA6", "result": 1.33},
      {"measurement": "Hill slope (PDIA6)", "setting": "PDIA6; [1]", "result": 1.33},
      {"measurement": "EC50", "setting": "PDIA6; living HL-60 cells, […] °C, TMT-MS, read-out: pEC50 (PDIA6) (converted)", "result": 3.55, "unit": "µM"},
      {"measurement": "Hill slope", "setting": "POR; TPP-CCR, living cells, POR", "result": 0.73},
      {"measurement": "EC50", "setting": "POR; [1]", "result": 1.29, "unit": "µM"},
      {"measurement": "Hill slope (POR)", "setting": "POR; [1]", "result": 0.73},
      {"measurement": "Hill slope", "setting": "ANP32E; TPP-CCR, living cells, ANP32E", "result": 0.58},
      {"measurement": "Hill slope (ANP32E)", "setting": "ANP32E; [1]", "result": 0.58},
      {"measurement": "EC50", "setting": "ANP32E; living HL-60 cells, […] °C, TMT-MS, read-out: pEC50 (ANP32E) (converted)", "result": 0.166, "unit": "µM"}
    ]}
  ]
}
